Source: the supplement of paper PMC10307832

Experiments:
Experiment in all cases: relative viability (nuclei count vs DMSO), 5 days (fraction); higher = more cells survive
[1] = compound: Cn1cc(-c2cnn3c(N)c(Br)c([C@@H]4CCCNC4)nc23)cn1 + C[C@]1(O)C[C@@H](c2nc(-c3ccc4ccc(-c5ccccc5)nc4c3)c3c(N)nccn32)C1 [Linsitinib] (partner 1 µM)
Summary of the method: (§1)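 Values are medians from duplicate plates. Each reflects relative viability, defined as the nuclei count of treated wells over that of vehicle wells. Lung cancer cell lines in 1536-well plates were pin-tool dosed one day after seeding with one drug alone or with a fixed anchor-drug dose plus five library-drug doses (not always all listed) in √10 steps, then fixed, stained and imaged at 4× after 5 days.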

[2] = compound: Cn1cc(-c2cnn3c(N)c(Br)c([C@@H]4CCCNC4)nc23)cn1 + CS(=O)(=O)N1CCN(Cc2cc3nc(-c4cccc5[nH]ncc45)nc(N4CCOCC4)c3s2)CC1 [Pictilisib] (partner 1 µM)
Summary of the method: as §1

[3] = compound: Cn1cc(-c2cnn3c(N)c(Br)c([C@@H]4CCCNC4)nc23)cn1 + Nc1ncn([C@H]2C[C@H](O)[C@@H](CO)O2)c(=O)n1 [Decitabine] (partner 2 µM)
Summary of the method: as §1

[4] = compound: Cn1cc(-c2cnn3c(N)c(Br)c([C@@H]4CCCNC4)nc23)cn1 + Cc1nc(NC(=O)N2CCC[C@H]2C(N)=O)sc1-c1ccnc(C(C)(C)C(F)(F)F)c1 [Alpelisib] (partner 2 µM)
Summary of the method: as §1

Cell Line	relative viability ([1]; first compound 0.05 µM)	relative viability ([1]; first compound 0.1581 µM)	relative viability ([1]; first compound 1.581 µM)	relative viability ([1]; first compound 5 µM)	relative viability ([2]; first compound 0.05 µM)	relative viability ([2]; first compound 0.1581 µM)	relative viability ([2]; first compound 1.581 µM)	relative viability ([2]; first compound 5 µM)	relative viability ([3]; first compound 0.05 µM)	relative viability ([3]; first compound 0.1581 µM)	relative viability ([3]; first compound 0.5 µM)	relative viability ([3]; first compound 1.581 µM)	relative viability ([3]; first compound 5 µM)	relative viability ([4]; first compound 0.05 µM)	relative viability ([4]; first compound 0.1581 µM)	relative viability ([4]; first compound 1.581 µM)	relative viability ([4]; first compound 5 µM)	relative viability ([1]; first compound 0.5 µM)	relative viability ([2]; first compound 0.5 µM)	relative viability ([4]; first compound 0.5 µM)
NCI-H1993	0.718	0.69	0.672	0.739	0.816	0.789	0.819	0.686	0.602	0.49	0.621	0.55	0.524	0.632	0.7	0.66	0.708	–	–	–
NCI-H1437	1.17	1.16	0.604	0.821	0.438	0.411	0.292	0.306	0.556	0.695	0.655	0.623	0.21	1.05	1.02	0.576	0.761	0.954	0.418	0.795
UMC-11	1.18	1.08	0.818	0.507	0.926	0.782	0.397	0.431	0.692	0.536	0.689	0.492	0.373	1.04	1.07	0.621	0.579	0.991	0.709	0.675
201T	1.08	1.05	0.97	0.936	0.644	0.621	0.613	0.573	0.809	0.856	0.844	0.882	0.93	1.04	1.02	0.98	0.909	1.12	0.704	1.05
NCI-H358	0.7	0.626	0.581	0.523	0.314	0.346	0.352	0.304	0.206	0.235	0.232	0.217	0.185	0.957	0.766	0.518	0.78	0.608	0.309	0.852
LOU-NH91	0.963	0.868	0.899	0.734	0.518	0.515	0.535	0.511	0.82	0.81	0.796	0.801	0.729	0.721	0.664	0.658	0.561	0.929	0.527	0.695
HOP-62	1.17	1.08	0.873	0.956	0.896	0.699	0.444	0.455	0.252	0.2	0.191	0.239	0.269	1.1	0.815	0.649	1.19	0.693	0.586	0.997
NCI-H1915	1.1	1.07	1.16	1.14	0.933	0.942	0.896	0.9	0.225	0.255	0.299	0.24	0.311	1.01	1.08	1.08	1.1	1.05	0.948	1.03
NCI-H3122	1.02	1.06	1.08	1.09	0.635	0.647	0.526	0.606	0.427	0.454	0.329	0.413	0.511	0.79	0.856	0.717	0.869	0.964	0.604	0.806
NCI-H1651	0.949	0.977	0.574	0.356	0.662	0.613	0.283	0.312	0.566	0.648	0.613	0.552	0.385	1.08	1	0.479	0.434	0.869	0.607	1.01
NCI-H838	0.984	1.09	0.824	0.962	0.365	0.501	0.264	0.488	0.483	0.574	0.545	0.51	0.309	1.08	1.16	0.784	1.02	0.987	0.416	0.94
NCI-H596	1.07	1.11	0.986	1.16	0.386	0.401	0.362	0.413	0.973	0.968	1.03	0.916	1.12	0.939	0.498	0.494	0.478	1.01	0.427	0.47
SK-LU-1	1.13	–	0.318	0.255	0.569	0.424	0.365	0.278	0.788	0.586	0.537	0.363	0.255	1.19	–	0.339	0.248	0.465	0.458	0.463
NCI-H441	0.802	0.346	0.56	0.563	0.669	0.56	0.527	0.46	0.257	0.249	0.26	0.22	0.257	0.859	1.15	–	0.852	0.461	0.478	0.856
NCI-H650	0.808	0.775	0.795	0.657	1.06	0.882	0.749	0.602	0.317	0.341	0.34	0.39	0.434	1.16	1.22	1.05	0.858	0.846	0.804	1.23
SK-MES-1	1.05	1.1	0.971	0.289	0.333	0.395	0.288	0.216	0.356	0.413	0.336	0.355	0.204	1.01	1.03	0.763	0.592	1.04	0.336	0.94
NCI-H1792	0.709	0.531	0.327	0.274	0.318	0.288	0.241	0.164	0.542	0.627	0.587	–	0.516	0.883	0.887	0.408	0.488	0.347	0.24	0.411

Cell Line	relative viability ([1]; first compound 0.05 µM)	relative viability ([1]; first compound 0.1581 µM)	relative viability ([1]; first compound 1.581 µM)	relative viability ([1]; first compound 5 µM)	relative viability ([2]; first compound 0.05 µM)	relative viability ([2]; first compound 0.1581 µM)	relative viability ([2]; first compound 1.581 µM)	relative viability ([2]; first compound 5 µM)	relative viability ([3]; first compound 0.05 µM)	relative viability ([3]; first compound 0.1581 µM)	relative viability ([3]; first compound 0.5 µM)	relative viability ([3]; first compound 1.581 µM)	relative viability ([3]; first compound 5 µM)	relative viability ([4]; first compound 0.05 µM)	relative viability ([4]; first compound 0.1581 µM)	relative viability ([4]; first compound 1.581 µM)	relative viability ([4]; first compound 5 µM)	relative viability ([1]; first compound 0.5 µM)	relative viability ([2]; first compound 0.5 µM)	relative viability ([4]; first compound 0.5 µM)
NCI-H1355	0.798	0.911	0.82	0.814	0.402	0.474	0.408	0.342	0.344	0.332	0.378	0.417	0.358	0.797	0.875	0.849	0.825	0.738	0.467	0.819
SW 1573	0.689	0.775	0.753	0.805	0.48	0.572	0.461	0.499	0.567	0.498	0.455	0.462	0.517	0.779	1.07	0.78	0.616	0.888	0.502	0.801
A549	0.653	0.664	0.588	0.43	0.503	0.606	0.284	0.307	0.323	0.281	0.279	0.278	0.116	0.659	0.822	0.752	0.495	0.48	0.434	0.653
NCI-H2347	0.992	1.01	0.917	0.85	0.77	0.63	0.264	0.57	0.611	0.649	0.637	0.662	0.621	0.974	1.19	0.957	0.812	0.986	0.759	0.959
LCLC-97TM1	0.194	0.2	0.21	0.176	0.16	0.149	0.152	0.143	0.22	0.297	0.222	0.278	0.295	0.188	0.299	0.228	0.189	0.184	0.26	0.23
EMC-BAC-2	0.834	0.904	0.663	0.836	0.545	0.561	0.475	0.509	0.976	1.02	0.981	0.827	0.887	0.778	0.885	0.708	0.81	0.849	0.531	0.66
NCI-H1975	1.08	0.918	0.79	0.805	0.308	0.264	0.222	0.248	0.433	0.458	0.767	0.388	0.396	0.685	0.681	0.404	0.525	0.842	0.308	0.655
BEN	1.04	0.977	0.686	0.738	0.628	0.575	0.496	0.417	0.701	0.763	0.663	0.709	0.629	0.891	1.15	0.869	0.778	0.918	0.498	1.05
NCI-H23	0.575	0.642	0.449	0.244	0.576	0.506	0.313	0.198	0.295	0.278	0.362	0.267	0.269	0.741	0.717	0.667	0.227	0.466	0.395	0.613
NCI-H520	0.991	0.939	0.733	0.561	0.266	0.318	0.208	0.267	0.528	0.543	0.57	0.527	0.306	0.86	0.887	0.64	0.785	0.931	0.283	0.763
EPLC-272H	1.26	1.18	1.25	1.12	0.289	0.291	0.211	0.21	0.342	0.304	0.336	0.303	0.253	0.93	0.902	0.956	0.824	1.24	0.277	1.01
LCLC-103H	0.978	1.18	1.06	0.915	0.565	0.555	0.489	0.466	0.745	0.73	0.809	0.695	0.816	0.957	0.962	1.05	0.847	1.15	0.522	0.867
NCI-H2405	0.922	0.875	0.842	0.785	0.466	0.37	0.327	0.314	0.747	0.819	0.776	0.71	0.713	0.816	0.753	0.777	0.542	1.02	0.396	0.814
HCC-15	0.98	0.997	0.838	0.829	0.798	0.768	0.634	0.764	0.652	0.689	0.633	0.552	0.561	0.981	1.01	0.782	0.901	0.824	0.757	0.863
PC-3 [JPC-3]	0.966	0.989	0.975	1.03	0.692	0.746	0.667	0.747	0.759	0.86	–	0.808	0.853	1.12	1.13	0.965	1.12	0.975	0.744	1.13
NCI-H1944	1.16	1.2	1.06	0.867	0.341	0.358	0.32	0.302	0.439	0.468	0.448	0.482	0.356	0.808	0.797	0.717	0.626	1.12	0.346	0.825
